Assay results as given in patent US20150209263A1, “Method and Compositions for Oral Hygiene” (Imrex, Inc., priority 2003, published 2015).
“Also recorded” adds a separate entry of the source.

System: cats with recalcitrant stomatitis
Test: Treatment of cats with recalcitrant stomatitis (case reports)
Type: in vivo
Conditions: single cat case reports
Method: Several cats experiencing recalcitrant stomatitis were treated using oral hygiene composition of the present invention further comprising emilgase. All compositions comprised 0.05% emilgase. All treatments were 5 mL/500 mL water (10 mL/L rate). If additional water was required after the 500 mL was consumed, plain water was offered. Any unconsumed solution was discarded after 24 hours and fresh solution was mixed.

Structure (SMILES) | response of stomatitis to treatment
CN1CCN(c2c(F)cc3c(=O)c(C(=O)O)cn4c3c2OCN4C)CC1 [Zeniquin] | responded well
CC[C@H]1OC(=O)[C@H](C)[C@@H](O[C@H]2C[C@@](C)(OC)[C@@H](O)[C@H](C)O2)[C@H](C)[C@@H](O[C@@H]2O[C@H](C)C[C@H](N(C)C)[C@H]2O)[C@](C)(O)C[C@@H](C)CN(C)[C@H](C)[C@@H](O)[C@]1(C)O [Zithromax] | temporary responses; also recorded: did not respond
